According to patent US9097673B2, “Processes and kits for determining multi-drug resistance of cells” (ENZO LIFE SCIENCES, INC., priority 2010, dated 2015):

Assays:
HeLa cell line = test: Dye uptake flow cytometry MDR assay; assay type: cell-based, human; details: HeLa, dye uptake
Procedure: (§1) Concentrations of the modulators used in the experiments were non-toxic to the cells (based upon standard 3-(4,5-Dimethylthiazol-2-Yl)-2,5-Diphenyltetrazolium Bromide (MTT) testing, data not shown). Fluo-8™ was used in all experiments at 5 μM, and Rhod-4™—at 4 μM final concentrations.
(§2) Kolmogorov-Smirnov statistics measures the difference between two distribution functions and generates a D value ranging between 0 and 1.0, with higher values indicating a greater difference between the distribution functions. The D value generated by the KS statistics was modified by ascribing a negative value if the fluorescence of a negative control (no inhibitor) was brighter than the fluorescence of the sample with inhibitor.

[1] = tested on: CHO K1, A549 and HeLa cells; test: MTT test of dye toxicity; assay type: cell-based; details: 5 μM Fluo-8 AM, 3 h at 37° C.
Procedure: Three model cell lines (CHO K1, A549 and HeLa cells) were seeded in 96 well plates (5×10^3 cells/well) and 24 h later were treated with the working concentrations of dyes (0.5 μM of Calcein AM, 5 μM of Fluo-8™ AM, 4 μM of Rhod-4™ AM) used in the MDR assay for 3 h at 37° C. Then reagents were removed and a standard MTT test was performed as described elsewhere [Mosmann T., J Immunol Methods 65(1-2):55-63 (1983)]. Viability was calculated as a ratio of OD595 for treated cells to the OD595 of untreated control cells (FIG. 4). […] Additionally, the concentration of Rhod-4™ AM can be decreased further for particularly sensitive cell lines.

A549 cell line = test: Dye uptake flow cytometry MDR assay; assay type: cell-based, human; details: A549, dye uptake
Procedure: as §1, §2

HCT-8 cells = test: Dye uptake flow cytometry MDR assay; assay type: cell-based, human; set-up: key: Kolmogorov-Smirnov D statistic comparing fluorescence distributions; details: HCT-8, dye uptake
Procedure: Cells were grown on tissue culture dishes and on the day of assay were trypsinized and washed twice with warm (37° C.) phosphate-buffered saline (PBS). Post-wash, the cells were re-suspended in warm phenol red indicator-free medium at a density of 1×10^6/ml. For each detection set, sixteen tubes (5 samples in triplicates plus non-stained control for background fluorescence) in numbered tubes each containing 5×10^5/cells (0.5 ml) were prepared. […] After incubation for 5 min at 37° C., 0.25 ml of warm medium with Fluo-8™ AM probe (5 μM final concentration) or Rhod-4™ AM probe (2 μM final concentration) was added to each tube excluding non-stained control that receives plain medium and cells were incubated for 30 min at 37° C. and analyzed immediately by flow cytometry. In the second set of the tubes, the reaction was stopped by rapid centrifugation (1 min) at relatively low speed (200×g). After wash with ice-cold PBS and discarding the supernatant, cells were re-suspended in 0.5 ml of ice-cold medium and kept on ice until flow cytometry analysis. The third set of cells simply was spun down (1 min, 200×g) to remove the excess of the probe, resuspended in ice-cold medium and kept on ice until flow cytometry analysis.
Flow cytometry experiments were performed using a FACS Calibur benchtop flow cytometer (BD Biosciences) equipped with a blue (488 nm) laser, and the signals were registered in the FITC (530/30 filter), PE (585/42 filter) and PerCP (670 LP filter) channels. Fluo-8™ dye fluorescence was measured in the FL1 channel, and Rhod-4™ dye fluorescence—in the FL2 channel. Flow cytometry data were analyzed by comparison of median fluorescence or using Kolmogorov-Smirnov statistics [Young, J Histochem Cytochem 25:935-941 (1977)] or by calculating MAF values (MDR Activity Factor) using the following formula: MAF=100*((MFIinh−MFI0)/MFIinh), where MFIinh and MFI0 are mean fluorescence intensity values measured in the presence and absence of inhibitor [Hollo et al., Biochem Piophys Acta. 1191:384-388 (1994)].
Both human ileocecal colorectal carcinoma cell line HCT-8 (reported to over-express P-gp and, to a lesser extent, MRP [Hunter et al., Br J Cancer. 64:437-444 (1991); Collington et al., Biochem Pharmacol 44:417-424 (1992)] and hepatocellular carcinoma Hep G2 (reported to over-express MRP [Roelofsen et al., Gastroenterology 112:511-521 (1997), Cantz et al., Am J Physiol Gastrointest Liver Physiol. 278:G522-G531 (2000)] were obtained from ATCC. HCT-8 cells were routinely cultured in RPMI-1640 Medium with 2 mM L-glutamine, 10 mM HEPES, 1 mM sodium piruvate, 4.5 g/L glucose, 1.5 g/L sodium bicarbonate (ATCC), supplemented with 10% horse serum (ATCC) and 100 U/ml penicillin, 100 ug/ml streptomycin (Sigma-Aldrich, St. Louis, Mo.). Hep G2 cells were routinely cultured in Eagle's Minimum Essential Medium with low glucose (ATCC), supplemented with 10% heat inactivated fetal bovine serum (ATCC) and 100 U/ml penicillin, 100 ug/ml streptomycin (Sigma-Aldrich, St. Louis, Mo.). Cell cultures were maintained in a humidified incubator at 37° C., with 5% CO2 atmosphere. Stock solutions of the probes and inhibitors were prepared, as described in Examples 2 and 3. Cells were grown in tissue culture dishes and on the day of assay were treated according to a dye uptake protocol and analyzed by flow cytometry, as described in Example 3.

CHO K1 cell line = test: Dye uptake flow cytometry MDR assay; assay type: cell-based, hamster; details: for D-values, Cyclosporin A / D-values, Novobiocin / D-values, Probenecid / D-values, Verapamil / MAF, Cyclosporin A / MAF, Novobiocin / MAF, Probenecid / MAF, Verapamil: Fluo-8 AM probe, dye uptake;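 on all read-outs here: flow cytometry of dye-loaded cells, Kolmogorov-Smirnov D value (0 to 1.0) comparing fluorescence with versus without inhibitor, made negative when the uninhibited control was brighter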
Procedure: as §1, §2

[2] = average of three representative experiments (Table 6)
[3] = representative experiment (Table 8)
[4] = average of three independent experiments (Table 10)
[5] = CHO K1, dual probes Fluo-8 AM (FL1) + Pheophorbide A (FL3)
[6] = CHO K1, dye uptake, average of three independent experiments (Table 10)
[7] = CHO K1, dye uptake, average of three representative experiments (Table 6)
[8] = CHO K1, dye uptake, representative experiment (Table 8)

CC(=O)OCOC(=O)CN(CC(=O)OCOC(C)=O)c1ccccc1OCCOc1cc(-c2c3ccc(=O)cc-3oc3cc(OCOC(C)=O)ccc23)ccc1N(CC(=O)OCOC(C)=O)CC(=O)OCOC(C)=O [Fluo-8 ™ AM]
D-value, Fumitremorgan C (HeLa cell line; [2]): 0.15 | D-value, Probenecid (HeLa cell line; [2]): 0 | D-value, Verapamil (HeLa cell line; [2]): 0.10 | D-value, Cyclosporine A (HeLa cell line; [3]): 0.14 | D-value, Novobiocin (HeLa cell line; [3]): 0.09 | D-value, Probenecid (HeLa cell line; [3]): 0.15 | D-value, Verapamil (HeLa cell line; [3]): 0.04 | Toxicity to the cells (MTT viability) [1]: not toxic | D-value, Cyclosporine A (A549 cell line; [4]): 0.43 | D-value, FTC (A549 cell line; [4]): 0.31 | D-value, MK-571 (A549 cell line; [4]): 0.61 | D-value, Novobiocin (A549 cell line; [4]): 0.37 | D-value, Verapamil (A549 cell line; [4]): 0.06 | D-value, Fumitremorgan C (A549 cell line; [2]): 0.23 | D-value, Probenecid (A549 cell line; [2]): 0.26 | D-value, Verapamil (A549 cell line; [2]): 0.07 | D-value, Cyclosporine A (A549 cell line; [3]): 0.51 | D-value, Novobiocin (A549 cell line; [3]): 0.44 | D-value, Probenecid (A549 cell line; [3]): 0.49 | D-value, Verapamil (A549 cell line; [3]): 0.09 | D-value, CyclosporinA (HCT-8 cells): 0.68 | D-value, MK-571 (HCT-8 cells): 0.34 | D-value, Novobiocin (HCT-8 cells): 0.22 | D-value, Verapamil (HCT-8 cells): 0.71 | D-values Post Inhibitor Treatment (compared to uninhibited cells), CsA (CHO K1 cell line; [5]): 0.94 | D-values Post Inhibitor Treatment (compared to uninhibited cells), FTC (CHO K1 cell line; [5]): 0.56 | D-values Post Inhibitor Treatment (compared to uninhibited cells), MK-571 (CHO K1 cell line; [5]): 0.98 | D-values Post Inhibitor Treatment (compared to uninhibited cells), Verapamil (CHO K1 cell line; [5]): 0.9 | D-value, Cyclosporine A (CHO K1 cell line; [6]): 0.89 | D-value, FTC (CHO K1 cell line; [6]): 0.28 | D-value, MK-571 (CHO K1 cell line; [6]): 0.95 | D-value, Novobiocin (CHO K1 cell line; [6]): 0.68 | D-value, Verapamil (CHO K1 cell line; [6]): 0.74 | D-value, Fumitremorgan C (CHO K1 cell line; [7]): 0.48 | D-value, Probenecid (CHO K1 cell line; [7]): 0.69 | D-value, Verapamil (CHO K1 cell line; [7]): 0.84 | D-value, Cyclosporine A (CHO K1 cell line; [8]): 0.96 | D-value, Novobiocin (CHO K1 cell line; [8]): 0.78 | D-value, Probenecid (CHO K1 cell line; [8]): 0.89 | D-value, Verapamil (CHO K1 cell line; [8]): 0.83 | D-values, Cyclosporin A (CHO K1 cell line; No Wash): 0.97 | D-values, Novobiocin (CHO K1 cell line; No Wash): 0.98 | D-values, Probenecid (CHO K1 cell line; No Wash): 0.9 | D-values, Verapamil (CHO K1 cell line; No Wash): 0.81 | MAF, Cyclosporin A (CHO K1 cell line; No Wash): 93.0 | MAF, Novobiocin (CHO K1 cell line; No Wash): 93.5 | MAF, Probenecid (CHO K1 cell line; No Wash): 85.4 | MAF, Verapamil (CHO K1 cell line; No Wash): 77.6 | D-values, Cyclosporin A (CHO K1 cell line; Spin): 0.94 | D-values, Novobiocin (CHO K1 cell line; Spin): 0.97 | D-values, Probenecid (CHO K1 cell line; Spin): 0.9 | D-values, Verapamil (CHO K1 cell line; Spin): 0.76 | MAF, Cyclosporin A (CHO K1 cell line; Spin): 91.5 | MAF, Novobiocin (CHO K1 cell line; Spin): 92.4 | MAF, Probenecid (CHO K1 cell line; Spin): 85.0 | MAF, Verapamil (CHO K1 cell line; Spin): 73.0 | D-values, Cyclosporin A (CHO K1 cell line; Wash): 0.94 | D-values, Novobiocin (CHO K1 cell line; Wash): 0.94 | D-values, Probenecid (CHO K1 cell line; Wash): 0.87 | D-values, Verapamil (CHO K1 cell line; Wash): 0.76 | MAF, Cyclosporin A (CHO K1 cell line; Wash): 91.6 | MAF, Novobiocin (CHO K1 cell line; Wash): 91.3 | MAF, Probenecid (CHO K1 cell line; Wash): 86.2 | MAF, Verapamil (CHO K1 cell line; Wash): 73.5
